Test results published in article PMC5954004, “19th European Symposium on Radiopharmacy and Radiopharmaceuticals (ESRR’18)” (EJNMMI Radiopharmacy and Chemistry, 2018).
Where two headings read alike, the source gives them in different places. Each block holds one molecule with its values, some of them ahead of it. *1 amine or outer side, *2 acyl side, *3 side chain or, on linkers, in order; H or OH if unused. Where a SMILES comes first, the peptide text is derived from it. Bridges are numbered along the chain shown (N, C = ends). Where no end group is shown, it is not given here. [ ]: non-standard residue; d: D form. X1 = O=C([C@@H]1CCN=C2C(N[*:1])=Cc3cc(O)c(O)cc3N21)[*:2]; X2 = O=CN(O)CCC[C@H](N[*:1])C(=O)[*:2]; Suc = O=C(CCC(=O)[*:2])[*:1]

What was measured:
COX-2 = settings: cited from earlier work
From the text: (§1) Aim: Neolignan 4’-O-methylhonokiol (MH) isolated from Magnolia grandiflora is known to have several biological activities, including anti-cancer, anti-inflammatory and anti-neurodegenerative effects. […] The development of COX-2 inhibitor radiolabeled analogs is of special interest for PET visualization of inflammation and tumors.

COX-1 = settings: cited from earlier work
From the text: as §1

[1] = carrageenan-induced inflammation in mice; assay type: in vivo; settings: preliminary tests on mice with a carrageenan-induced inflammation
From the text: as §1, with “tumors. […] The present study describes the radiolabeling procedure of [^11C]MPbP.” for “tumors.”

[2] = human, serum
RBCs = test: RBC radiolabelling; assay type: cell-based
[3] = tested on: Her-2-positive (HCC1954) cell line; test: cell binding and internalisation, HCC1954; assay type: cell-based; settings: controls
LNCaP = test: total cell bound tracer, LNCaP; settings: 1h incubation
MDA-MB-231^+ = test: total cell bound tracer, MDA-MB-231+; settings: 1h incubation
PC-3^+ = test: total cell bound tracer, PC-3+; settings: 1h incubation
T47D^+ = test: total cell bound tracer, T47D+; settings: 1h incubation
MCF-7 cells = test: cellular uptake, internalization and membrane binding; assay type: cell-based
cysteine challenge = assay type: physicochemical; settings: 100 fold molar excess, up to 2 hours
Procedure: Cysteine challenge (100 fold molar excess) was also performed.

[4] = adult, 740 MBq; ref summary of products characteristics; cited from earlier work
AT1R = target: T1, AT1R (Homo sapiens, UniProt P30556); test: in vitro AT1R binding studies; assay type: cell-based; settings: MDA-MB-231 and CHO AT1R cells vs AT1R-negative CHO cells, 4 °C, one hour, with or without losartan potassium 100 μM
T1 construct: using AT1R-positive MDA-MB-231 breast cancer cells; endogenous in cells
Procedure: Methods: ^19F-AmBF3-losartan was prepared via a copper-catalyzed alkyne-AmBF3 and azide-modified losartan cycloaddition at 45 °C for two hours, followed by semi-preparative HPLC purification. Then, ^19F-AmBF3-losartan (25 nmol, 15.3 μg) was radiolabeled with fluoride-18 (555-925 MBq) via an ^18F–^19F isotope exchange reaction in aqueous phase at 80 °C for 20 minutes and purified by solid phase extraction using a C18 Light Sep-Pak cartridge. In vitro AT1R binding studies were performed at 4 °C for one hour using AT1R-positive MDA-MB-231 breast cancer cells, AT1R-expressing CHO AT1R cells, and AT1R-negative CHO cells. The in vitro studies were conducted in presence or absence of the AT1R blocker losartan potassium (100 μM). AT1R expression in cells was confirmed by quantitative real-time reverse transcription polymerase chain reaction (RT-PCR).

[5] = logP of 68Ga-TAFC derivatives; assay type: physicochemical; settings: 68Ga-labelled
Procedure: Stability, protein binding and logP values were determined.

rhuPAR = target: T2, rhuPAR (human, UniProt Q03405 23-305); test: ELISA; competitive bioassay: rhuPAR immobilised; ligand 0-1000 uM in the presence of 0.1 nM monoclonal mouse IgG1 antibody (clone #62022, R&D Systems) against the uPA-binding pocket of uPAR; HRP-conjugated goat anti-mouse IgG1, chromogenic substrate, read at 450 nm; assay specific IC50; settings: both partners purified
T2 construct: Species read from the printed label 'rhuPAR' (recombinant human uPAR); also called membrane anchored receptor uPAR
T2 sequence (Q03405 23-305): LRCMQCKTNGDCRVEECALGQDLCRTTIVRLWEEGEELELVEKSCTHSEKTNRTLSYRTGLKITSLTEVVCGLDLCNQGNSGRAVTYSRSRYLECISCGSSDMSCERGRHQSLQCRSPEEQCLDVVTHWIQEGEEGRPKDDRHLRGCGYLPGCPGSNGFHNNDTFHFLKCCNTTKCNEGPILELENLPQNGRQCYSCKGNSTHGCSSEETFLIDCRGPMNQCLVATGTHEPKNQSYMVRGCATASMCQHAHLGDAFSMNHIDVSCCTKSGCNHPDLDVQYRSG

T1 sequence (P30556 whole entry): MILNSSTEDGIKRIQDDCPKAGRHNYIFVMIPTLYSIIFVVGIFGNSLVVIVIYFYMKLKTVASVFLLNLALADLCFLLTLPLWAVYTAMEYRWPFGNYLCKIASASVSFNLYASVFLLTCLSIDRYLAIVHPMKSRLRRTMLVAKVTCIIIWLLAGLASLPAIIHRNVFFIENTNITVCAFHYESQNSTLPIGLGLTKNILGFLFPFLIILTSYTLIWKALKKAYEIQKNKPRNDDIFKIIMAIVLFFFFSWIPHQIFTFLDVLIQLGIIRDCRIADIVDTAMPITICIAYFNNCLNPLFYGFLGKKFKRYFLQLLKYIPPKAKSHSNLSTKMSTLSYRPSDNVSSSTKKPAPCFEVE

Molecule: C=CCc1ccc(O)c(-c2ccc(OC)c(CC=C)c2)c1 [MH, 4’-O-methylhonokiol]
IC50 (COX-2): 62 nM
IC50 (COX-1): 2400 nM

Molecule: CCCc1ccc(O)c(-c2ccc(O[11CH3])cc2)c1 [MPbP, 4’-[^11C]methoxy-5-propyl-1,1’-biphenyl-2-ol]
anti-inflammatory activity [1]: high anti-inflammatory activity comparable to that of specific COX-2 inhibitor celecoxib

Molecule: C[C@@H](O)[C@@H]1NC(=O)[C@H](CCCN(O)C=O)NC(=O)[C@@H](NC(=O)[C@H](CCCN(O)C=O)NC(=O)[C@@H](CO)NC(=O)[C@H](CCCNC(=N)N)NC(=O)[C@@H](CO)NC(=O)[C@@H]2CCN=C3C(NC(=O)CCC(=O)O)=Cc4cc(O)c(O)cc4N32)CCCCNC(=O)[C@H]([C@@H](C)O)NC1=O [^68Ga-pyoverdine, metal not drawn] (Suc-[X1][dS]R[dS][X2]K[X2]TT; lactam 6-C)
fraction unbound [2]: > 0.97
log p: -3.07 ± 0.08

Molecule: c1cnc2c([O][89Zr]([O]c3cccc4cccnc34)([O]c3cccc4cccnc34)[O]c3cccc4cccnc34)cccc2c1 [^89Zr-oxine]
labelling efficiency of RBCs (RBCs): above 64.5%

Molecule: O=C([O-])CN1CCN(CC(=O)[O-])CCN(CC(=O)[O-])CCN(CC(=O)[O-])CC1.[111In+3] [^111In-DOTA]
binding to HCC1954 cells [3]: did not bind

Molecule: H2N-(Ahx)-Lys-NH-CO-NH-Glu (PSMA-11) [[^68Ga]1]
cell binding, % given radioactivity (LNCaP): ~ 66%
cell binding, % given radioactivity (MDA-MB-231^+): ~ 80%
cell binding, times above control (MDA-MB-231^+; vs Mock or blocked controls): 100 x
cell binding, % given radioactivity (PC-3^+): ~ 13%
cell binding, times above control (PC-3^+; vs Mock or blocked controls): 10 x
cell binding, % given radioactivity (T47D^+): ~ 2.5%
cell binding, times above control (T47D^+; vs Mock or blocked controls): 4 x

Molecule: MA-Cys-Tyr-Arg-Leu-Arg-BPA-Nle-Pro-Asn-Ile-OH [^99mTc labelled NPY1 short analogue, 99mTc 3+1 nitrido complex of MA-Cys-Tyr-Arg-Leu-Arg-BPA-Nle-Pro-Asn-Ile-OH]
activity bound to the membrane (MCF-7 cells): 15.2%
activity internalised (MCF-7 cells): 84.8%
cellular uptake (MCF-7 cells; at 4 hours): 3.1±0.2
challenge with cysteine (cysteine challenge): no ligand exchange

Molecule: ^99mTc-HYNIC-[D-Phe,Tyr-octreotide [^99mTc-Octreotide]
effective dose [4]: 3.7 mSv

Molecule: ammoniumethyl-trifluoroborate-losartan [^18F-AmBF3-losartan]
binding to AT1R-expressing cells (AT1R): specific binding

Molecule: triacetylfusarinine C [[^68Ga]TAFC]
log p [5]: -2.1

binding result (rhuPAR): binds
B1: WX-360: cyclo^21,29[D-Cys^21]-uPA_(21-30)[S21C;H29C] (peptide, UniProt P00749 41-50, looked up)
peptide: [dC]NKYFSNICW
modifications: disulfide 1-9
notes: also called the original structure; source: synthetic peptide (synthesised on solid phase)
